This is an account of results in patent US9352030B2, “Mycobacterium antigenic composition” (priority 2010, dated 2016).

A short description of series [1]: Conductivity determination (Malvern Zetasizer Nano). It counts as physicochemical. The method, then:
A range of standards having sodium chloride concentrations of 0, 75, 100, 150, 250 and 300 mM were prepared from a stock solution of 1500 mM sodium chloride by dilution in water for injection.
Immunogenic compositions were prepared using M72 with two N-terminal His residues according to the procedures provided in Example 9. To investigate the contribution from the antigen itself and any residual materials in the purified bulk, placebo lyophilisation cakes were also prepared by excluding the antigen component.
Using a Malvern Zetasizer Nano and 1.5 ml of each sample in folded capillary cells, a voltage of 30 to 150 V (determined automatically by the instrument) was applied and the conductivity determined.

In series [2] the test system is chicken Red Blood cells (RBC). The series is described as follows: QS21 lytic activity haemolysis assay (limit test). It counts as cell-based. The settings on record: RBC 30 min RT, OD at 540 nm. The method, then: QS21 lytic activity was measured by a haemolysis assay using chicken Red Blood cells (RBC). RBC were centrifuged at 550 g at 4° C. Supernatant was discarded. The pellet was carefully resuspended in PBS buffer to reach the initial volume and the same operation was repeated until supernatant was no longer red (generally 3 times). The pellet was stored at 4° C. for 3 to 4 days maximum if not used directly (and washed again the day it is used) or was diluted around 10 times in buffer if used the same day.
A QS21 dose range curve was prepared in ASA buffer (in salt or in sorbitol buffer following the ASA sample tested) extemporaneously and the adjuvant samples (containing a 50 ug or 90 ug equivalent of QS21 meaning the equivalent of 500 ul or 900 ul ASA) were prepared. Final volume was adjusted to 900 ul in standards and samples with adequate buffer (containing or not sorbitol as a function of the buffer of the sample tested). Due to its opalescence, ASA interferes with optical density (OD). ASA “blanks” were thus prepared and their OD was subtracted from the OD of ASA tested samples. Those blanks corresponded to the same ASA volume as the volume tested in samples, but adjusted to 1 ml with buffer. No RBC were added to these blanks. Standards and samples were then incubated with RBC (100 ul of diluted RBC added to 900 ul of standards and samples) for 30 minutes at room temperature (RT). Samples were then centrifuged 5 minutes at 900 g. Optical density at 540 nm was measured after centrifugation.
Determination of lytic activity was carried out by a limit test.
1. Limit of detection (LOD) was defined as the lowest concentration of QS21 leading to an OD: • Higher than the base level (OD>0.1) • Around three times higher than OD's buffer (the “0 ug” QS21) • In the ascendant part of the curve • Determined for each test.
2. QS21 lytic activity was held to be positive in the adjuvant samples if the OD for the adjuvant sample was greater than the ODLOD).

The format of series [3] is physicochemical. The settings on record: pH 7.5 or 8.5; sodium chloride 150 mM or greater.
The subject of series [4] is M72-specific rabbit polyclonal antibody and M72(Mtb39)-specific mouse monoclonal antibody. Description: M72 antigenicity sandwich ELISA, varied pH and NaCl (Example 10). It counts as binding. The settings on record: pH 7.5 or 8.5; sodium chloride 150 mM or greater. (In general: In an ELISA, binding on a coated surface is turned into a signal by an enzyme label.)
The nature of series [5]: DLS of Rv1196 compositions with varied pH and NaCl after storage. It counts as physicochemical. The settings on record: 100 ug/ml; pH 8.5.
Series [6] is described as follows: Nephlometry of Rv1196 compositions with varied pH and NaCl after storage. It counts as physicochemical. The settings on record: 100 ug/ml; pH 6.1, 7.5, 8.5; 0, 150, 450 mM NaCl; 24 hours at 4° C. or 25° C. The method, then: Rv1196 protein (SEQ ID No: 1) was obtained from Corixa Corporation and was diluted to a concentration of 100 ug/ml in three different buffers (10 mM phosphate buffer at pH 6.1, 20 mM Tris buffer at pH 7.5 and 20 mM Tris buffer at pH 8.5) containing final sodium chloride concentrations of 0, 150 and 450 mM.
Samples were stored for 24 hours at 4° C. or 25° C. before analysis.
Nephlometry was performed using a Nepheloskan® Ascent, available from Thermo Fischer Scientific. Analysis was performed in UV transparent Costar® micro-plates available from Corning Inc (USA).

The format of series [7] is physicochemical. The settings on record: 100 ug/ml; pH 6.1, 7.5, 8.5; 0, 150, 450 mM NaCl; 24 hours at 4° C. or 25° C.
The format of series [8] is physicochemical. The settings on record: 100 ug/ml; pH 6.1, 7.5, 8.5; 0, 150, 450 mM NaCl; 24 hours at 4° C. or 25° C. This is another data set of the same source.

As for `[Cl-].[Na+]` [sodium chloride], the Conductivity in series [1] (75 mM sodium chloride standard in water for injection) is given as 8.2 mS/cm; in series [1] (300 mM sodium chloride standard in water for injection) it was 30.0 mS/cm.

Regarding QS21, the OD in series [2] (0.5 ug QS21 standard) amounted to 0.052; in series [2] (0.6 ug QS21 standard) it was 0.073; in series [2] (0.7 ug QS21 standard) it was 0.091; in series [2] (0.8 ug QS21 standard), 0.096; in series [2] (0.9 ug QS21 standard), 0.12.

B1: M72: fusion protein antigen comprising Rv1196, M72 with two N-terminal His residues, SEQ ID No: 7 (protein)
chain: MHHTAASDNFQLSQGGQGFAIPIGQAMAIAGQIRSGGGSPTVHIGPTAFLGLGVVDNNGNGARVQRVVGSAPAASLGISTGDVITAVDGAPINSATAMADALNGHHPGDVISVTWQTKSGGTRTGNVTLAEGPPAEFMVDFGALPPEINSARMYAGPGSASLVAAAQMWDSVASDLFSAASAFQSVVWGLTVGSWIGSSAGLMVAAASPYVAWMSVTAGQAELTAAQVRVAAAAYETAYGLTVPPPVIAENRAELMILIATNLLGQNTPAIAVNEAEYGEMWAQDAAAMFGYAAATATATATLLPFEEAPEMTSAGGLLEQAAAVEEASDTAAANQLMNNVPQALQQLAQPTQGTTPSSKLGGLWKTVSPHRSPISNMVSMANNHMSMTNSGVSMTNTLSSMLKGFAPAAAAQAVQTAAQNGVRAMSSLGSSLGSSGLGGGVAANLGRAASVGSLSVPQAWAAANQAVTPAARALPLTSLTSAAERGPGQMLGGLPVGQMGARAGGGLSGVLRVPPRPYVMPHSPAAGDIAPPALSQDRFADFPALPLDPSAMVAQVGPQVVNINTKLGYNNAVGAGTGIVIDPNGVVLTNNHVIAGATDINAFSVGSGQTYGVDVVGYDRTQDVAVLQLRGAGGLPSAAIGGGVAVGEPVVAMGNSGGQGGTPRAVPGRVVALGQTVQASDSLTGAEETLNGLIQFDAAIQPGDAGGPVVNGLGQVVGMNTAAS
modifications: M72 fusion with 2 additional his residues
For B1, the “change in antigen size” value in series [3] is “clear increase in antigen size”. The change in antigenicity result in series [4] is listed as “reduction in antigenicity”.

B2: Rv1196: Rv1196 protein (SEQ ID No: 1) from Mycobacterium tuberculosis H37Rv, obtained from Corixa Corporation (protein)
chain: MVDFGALPPEINSARMYAGPGSASLVAAAQMWDSVASDLFSAASAFQSVVWGLTVGSWIGSSAGLMVAAASPYVAWMSVTAGQAELTAAQVRVAAAAYETAYGLTVPPPVIAENRAELMILIATNLLGQNTPAIAVNEAEYGEMWAQDAAAMFGYAAATATATATLLPFEEAPEMTSAGGLLEQAAAVEEASDTAAANQLMNNVPQALQQLAQPTQGTTPSSKLGGLWKTVSPHRSPISNMVSMANNHMSMTNSGVSMTNTLSSMLKGFAPAAAAQAVQTAAQNGVRAMSSLGSSLGSSGLGGGVAANLGRAASVGSLSVPQAWAAANQAVTPAARALPLTSLTSAAERGPGQMLGGLPVGQMGARAGGGLSGVLRVPPRPYVMPHSPAAG
modifications: Mycobacterium tuberculosis H37Rv
As for B2, the “particle size by DLS” value in series [5] is on record as “concentration of sodium chloride impacts the measured particle size”. Also, in series [6], the “clarity by nephlometry with increasing salt concentration” value is given as “sensitive to salt concentration”.

B3: Mtb72f: fusion protein antigen, Mtb72f with 6 his residues, SEQ ID No: 11 (protein)
chain: MHHHHHHTAASDNFQLSQGGQGFAIPIGQAMAIAGQIRSGGGSPTVHIGPTAFLGLGVVDNNGNGARVQRVVGSAPAASLGISTGDVITAVDGAPINSATAMADALNGHHPGDVISVTWQTKSGGTRTGNVTLAEGPPAEFMVDFGALPPEINSARMYAGPGSASLVAAAQMWDSVASDLFSAASAFQSVVWGLTVGSWIGSSAGLMVAAASPYVAWMSVTAGQAELTAAQVRVAAAAYETAYGLTVPPPVIAENRAELMILIATNLLGQNTPAIAVNEAEYGEMWAQDAAAMFGYAAATATATATLLPFEEAPEMTSAGGLLEQAAAVEEASDTAAANQLMNNVPQALQQLAQPTQGTTPSSKLGGLWKTVSPHRSPISNMVSMANNHMSMTNSGVSMTNTLSSMLKGFAPAAAAQAVQTAAQNGVRAMSSLGSSLGSSGLGGGVAANLGRAASVGSLSVPQAWAAANQAVTPAARALPLTSLTSAAERGPGQMLGGLPVGQMGARAGGGLSGVLRVPPRPYVMPHSPAAGDIAPPALSQDRFADFPALPLDPSAMVAQVGPQVVNINTKLGYNNAVGAGTGIVIDPNGVVLTNNHVIAGATDINAFSVGSGQTYGVDVVGYDRTQDVAVLQLRGAGGLPSAAIGGGVAVGEPVVAMGNSGGQGGTPRAVPGRVVALGQTVQASDSLTGAEETLNGLIQFDAAIQPGDSGGPVVNGLGQVVGMNTAAS
modifications: Mtb72f fusion with 6 additional his residues
In the case of B3, the “nephlometry trend with salt concentration and pH” value in series [7] is “sensitive to salt concentration and pH”. Also, the “DLS size trend with salt concentration and pH” value in series [8] is “sensitive to salt concentration and pH”.
